Laboratory results from paper PMC8329502 (Toxicology Reports, 2021).

Molecular target: T1, cytochrome P450 1A2 (CYP1A2) (Homo sapiens, UniProt P05177)
T1 sequence (P05177 2-516): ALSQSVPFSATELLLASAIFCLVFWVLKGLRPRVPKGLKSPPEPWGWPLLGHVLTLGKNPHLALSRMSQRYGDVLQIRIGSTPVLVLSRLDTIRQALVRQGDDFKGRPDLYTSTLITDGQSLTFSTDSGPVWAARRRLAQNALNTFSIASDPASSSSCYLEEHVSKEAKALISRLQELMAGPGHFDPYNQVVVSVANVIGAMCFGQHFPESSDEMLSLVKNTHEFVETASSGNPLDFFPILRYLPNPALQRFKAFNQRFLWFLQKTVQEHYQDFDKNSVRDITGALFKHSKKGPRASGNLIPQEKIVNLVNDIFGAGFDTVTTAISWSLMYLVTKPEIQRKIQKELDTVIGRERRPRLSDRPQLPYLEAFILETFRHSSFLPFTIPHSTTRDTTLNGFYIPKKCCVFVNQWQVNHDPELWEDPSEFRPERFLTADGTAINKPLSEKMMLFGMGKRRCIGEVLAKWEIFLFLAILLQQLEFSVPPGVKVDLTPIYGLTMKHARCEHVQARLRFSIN
Experiment: […]-caffeine 3-N-demethylation in 50-donor pooled human liver microsomes
Assay type: biochemical

IC50	Structure (SMILES)
68.8 nM	COc1c2ccoc2cc2oc(=O)ccc12 [5-MOP, 5-methoxypsoralen]
277 nM	COc1c2ccoc2c(OC)c2oc(=O)ccc12 [ISOP, isopimpinellin]
